Measurements taken from patent publication US11851406B2, “Positive allosteric modulators of the muscarinic acetylcholine receptor M1” (Vanderbilt University, priority 2018, dated 2023).

Legend:
human mAChR M1 [1] = biological target: T1, human mAChR M1 (Homo sapiens, UniProt P11229); test: mAChR M1 cell-based functional assay (calcium mobilization), PAM activity: increase in the EC20 acetylcholine response; details: CHO-K1 cells expressing hM1; calcium flux (Fluo-4); potentiation of EC20 acetylcholine response
T1 sequence (P11229 1-460): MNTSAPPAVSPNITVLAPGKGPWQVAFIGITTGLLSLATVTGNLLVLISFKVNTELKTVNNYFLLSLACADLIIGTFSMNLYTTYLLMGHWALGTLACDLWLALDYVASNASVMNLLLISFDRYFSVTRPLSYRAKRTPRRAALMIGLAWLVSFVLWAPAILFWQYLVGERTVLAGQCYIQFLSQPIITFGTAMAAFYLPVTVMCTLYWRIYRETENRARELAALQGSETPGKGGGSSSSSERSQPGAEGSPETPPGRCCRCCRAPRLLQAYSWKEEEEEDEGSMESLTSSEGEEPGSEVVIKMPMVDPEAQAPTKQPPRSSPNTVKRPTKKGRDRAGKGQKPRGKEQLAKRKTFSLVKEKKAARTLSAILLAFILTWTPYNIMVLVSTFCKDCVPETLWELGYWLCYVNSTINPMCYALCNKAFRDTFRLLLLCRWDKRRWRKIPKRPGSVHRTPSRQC
Source text: (§1) Chinese hamster ovary (CHO-K1) cells stably expressing rat (r)M1 were purchased from the American Type Culture Collection and cultured according to their indicated protocol. CHO cells stably expressing human (h)M2, hM3, and hM5 were described previously (Levey, et al., 1991); hM1 and hM4 cDNAs were purchased from Missouri S&T cDNA Resource; rM4 cDNA was provided by T. I. Bonner (National Institutes of Health, Bethesda, Md.). rM2 and rM3 were cloned from a rat brain cDNA library and sequence verified. hM1, rM2, rM3, hM4, and rM4 cDNAs were used to stably transfect CHO-K1 cells purchased from the American Type Culture Collection using Lipofectamine2000. To make stable rM2, hM2, rM3, hM4, and rM4 cell lines for use in calcium mobilization assays, these cells also were stably transfected with a chimeric G-protein (Gqi5) (provided by B. R. Conklin, University of California, San Francisco) using Lipofectamine 2000. rM1, hM1, rM3, hM3, rM5, and hM5 cells were grown in Ham's F-12 medium containing 10% heat-inactivated fetal bovine serum (FBS), 20 mM HEPES, and 50 μg/mL G418 sulfate. rM2-Gqi5, hM2-Gqi5, and hM4-Gqi5 cells were grown in the same medium also containing 500 μg/mL Hygromycin B. Stable rM4-Gqi5 cells were grown in DMEM containing 10% heat-inactivated FBS, 20 mM HEPES, 400 μg/mL G418 sulfate, and 500 μg/mL Hygromycin B.
(§2) For high throughput measurement of agonist-evoked increases in intracellular calcium, CHO-K1 cells stably expressing muscarinic receptors were plated in growth medium lacking G418 and hygromycin at 15,000 cells/20 μL/well in Greiner 384-well black-walled, tissue culture (TC)-treated, clear-bottom plates (VWR). Cells were incubated overnight at 37° C. and 5% CO2. The next day, cells were washed using an ELX 405 (BioTek) with four washes (80 μL) of assay buffer then aspirated to 20 μL. Next, 20 μL of 16 μM Fluo-4/acetoxymethyl ester (Invitrogen, Carlsbad, Calif.) prepared as a 2.3 mM stock in DMSO and mixed in a 1:1 ratio with 10% (w/v) Pluronic F-127 and diluted in assay buffer was added to the wells and the cell plates were incubated for 50 min at 37° C. and 5% CO2. Dye was removed by washing with the ELX 405 (four 80 μL washes of assay buffer) then aspirated to 20 μL. Compound master plates were formatted in an 11 point CRC format (1:3 dilutions) in 100% DMSO with a starting concentration of 10 mM using the BRAVO liquid handler (Agilent). Test compound CRCs were then transferred to daughter plates (240 nL) using the Echo acoustic plate reformatter (Labcyte, Sunnyvale, Calif.) and then diluted into assay buffer (40 μL) to a 2× stock using a Thermo Fisher Combi (Thermo Fisher Scientific, Waltham, Mass.).
(§3) Calcium flux was measured using the Functional Drug Screening System (FDSS) 6000 (Hamamatsu Corporation, Tokyo, Japan) as an increase in the fluorescent static ratio. Compounds were applied to cells (20 μL, 2×) using the automated system of the FDSS 6000 at 4 s into the 300 s protocol and the data were collected at 1 Hz. At 144 s into the 300 s protocol, 10 μL of an EC20 concentration of the muscarinic receptor agonist acetylcholine was added (5×), followed by the addition of 12 μL an EC80 concentration of acetylcholine at the 230 s time point (5×). Agonist activity was analyzed as a concentration-dependent increase in calcium mobilization upon compound addition. Emax values for agonist activity are expressed relative to the maximum for acetylcholine. Positive allosteric modulator activity was analyzed as a concentration-dependent increase in the EC20 acetylcholine response. Antagonist activity was analyzed as a concentration-dependent decrease in the EC80 acetylcholine response. Concentration-response curves were generated using a four-parameter logistical equation in XLfit curve fitting software (IDBS, Bridgewater, N.J.) for Excel (Microsoft, Redmond, Wash.) or Prism (GraphPad Software, Inc., San Diego, Calif.).

human mAChR M1 [2] = biological target: T1, human mAChR M1; test: mAChR M1 cell-based functional assay (calcium mobilization), agonist activity upon compound addition alone; details: CHO-K1 cells expressing hM1; for EC50: calcium mobilization upon compound addition, no acetylcholine; for Emax: compound alone, relative to the maximum for acetylcholine
Source text: as §1, §2, §3

Row | EC50 (human mAChR M1 [1]) [µM] | Emax (human mAChR M1 [1]) [%] | EC50 (human mAChR M1 [2]) [µM] | Emax (human mAChR M1 [2]) [%] | SMILES
1 | 2.25 | 61 | > 10 | < 5 | Cn1cc(-c2ccc(Cc3cc(C(=O)N[C@H]4CCCC[C@@H]4O)nc(-n4cccn4)c3)cn2)cn1 [Compound 20, N-((1S,2S)-2-hydroxycyclohexyl)-4-((6-(1-methyl-1H-pyrazol-4-yl)pyridin-3-yl)methyl)-6-(1H-pyrazol-1-yl)picolinamide]
2 | – | 38 | > 10 | < 5 | Cn1cc(-c2ccc(Cc3cc(C(=O)NC[C@@H]4CCCO4)nc(-c4ccn(C)n4)c3)cn2)cn1 [Compound 7, (S)-6-(1-methyl-1H-pyrazol-3-yl)-4-((6-(1-methyl-1H-pyrazol-4-yl)pyridin-3-yl)methyl)-N-((tetrahydrofuran-2-yl)methyl)picolinamide]
3 | 4 | 90 | > 10 | < 5 | Cn1cc(-c2ccc(Cc3cc(C(=O)N[C@H]4CCCC[C@@H]4O)nc(-c4ccn(C)n4)c3)cn2)cn1 [Compound 3, N-((1S,2S)-2-hydroxycyclohexyl)-6-(1-methyl-1H-pyrazol-3-yl)-4-((6-(1-methyl-1H-pyrazol-4-yl)pyridin-3-yl)methyl)picolinamide]
4 | 5.51 | 69 | > 10 | < 5 | Cn1ccc(-c2ccc(Cc3cc(C(=O)N[C@H]4CCC[C@@H]4O)nc(-n4cccn4)c3)cc2)n1 [Compound 33, N-((1S,2S)-2-hydroxycyclopentyl)-4-(4-(1-methyl-1H-pyrazol-3-yl)benzyl)-6-(1H-pyrazol-1-yl)picolinamide]
5 | 6.25 | 69 | > 10 | < 5 | Cc1nc(-c2ccc(Cc3cc(C(=O)NC4CC5(COC5)C4)nc(-n4cccn4)c3)cc2)co1 [Compound 23, 4-(4-(2-methyloxazol-4-yl)benzyl)-6-(1H-pyrazol-1-yl)-N-(2-oxaspiro[3.3]heptan-6-yl)picolinamide]
6 | – | 46 | > 10 | < 5 | Cn1ccc(-c2ccc(Cc3cc(C(=O)N[C@H]4CC[C@@H]4O)nc(-n4cccn4)c3)cc2)n1 [Compound 32, N-((1S,2S)-2-hydroxycyclobutyl)-4-(4-(1-methyl-1H-pyrazol-3-yl)benzyl)-6-(1H-pyrazol-1-yl)picolinamide]
7 | 1.97 | 88 | > 10 | < 5 | Cc1nc(-c2ccc(Cc3cc(C(=O)N[C@H]4CCOC[C@@H]4O)nc(-n4cccn4)c3)cc2)co1 [Compound 19, N-((3R,4S)-3-hydroxytetrahydro-2H-pyran-4-yl)-4-(4-(2-methyloxazol-4-yl)benzyl)-6-(1H-pyrazol-1-yl)picolinamide]

The remaining lines, values behind:

Row | SMILES | EC50 (human mAChR M1 [1]) [µM] | Emax (human mAChR M1 [1]) [%] | EC50 (human mAChR M1 [2]) [µM] | Emax (human mAChR M1 [2]) [%]
8 | Cc1nc(-c2ccc(Cc3cc(C(=O)N[C@H]4CCCC[C@@H]4O)nc(-n4cccn4)c3C)cc2)co1 [Compound 48, N-((1S,2S)-2-hydroxycyclohexyl)-5-methyl-4-(4-(2-methyloxazol-4-yl)benzyl)-6-(1H-pyrazol-1-yl)picolinamide] | 0.832 | 59 | 8.59 | 10
9 | Cn1cc(-c2ccc(Cc3cc(C(=O)NC4CC5(COC5)C4)nc(-n4cccn4)c3)cn2)cn1 [Compound 21, 4-((6-(1-methyl-1H-pyrazol-4-yl)pyridin-3-yl)methyl)-6-(1H-pyrazol-1-yl)-N-(2-oxaspiro[3.3]heptan-6-yl)picolinamide] | – | 40 | > 10 | < 5
10 | Cc1c(Cc2ccc(-n3cccn3)cc2)cc(C(=O)N[C@H]2CCC[C@@H]2O)nc1-c1ccn(C)n1 [Compound 59, 4-(4-(1H-pyrazol-1-yl)benzyl)-N-((1S,2S)-2-hydroxycyclopentyl)-5-methyl-6-(1-methyl-1H-pyrazol-3-yl)picolinamide] | 1.98 | 85 | > 10 | < 5
11 | Cc1c(Cc2ccc(-c3ccn(C)n3)cc2)cc(C(=O)N[C@H]2CCOC[C@@H]2O)nc1-n1cccn1 [Compound 2, N-((3R,4S)-3-hydroxytetrahydro-2H-pyran-4-yl)-5-methyl-4-(4-(1-methyl-1H-pyrazol-3-yl)benzyl)-6-(1H-pyrazol-1-yl)picolinamide] | 0.317 | 78 | 7.15 | 25
12 | Cc1c(Cc2ccc(-n3cccn3)cc2)cc(C(=O)N[C@H]2CCOC[C@@H]2O)nc1-c1ccn(C)n1 [Compound 55, 4-(4-(1H-pyrazol-1-yl)benzyl)-N-((3R,4S)-3-hydroxytetrahydro-2H-pyran-4-yl)-5-methyl-6-(1-methyl-1H-pyrazol-3-yl)picolinamide] | 0.324 | 77 | 6.7 | 22
13 | Cc1nc(-c2ccc(Cc3cc(C(=O)N[C@H]4CCC[C@@H]4O)nc(-n4cccn4)c3)cc2)co1 [Compound 24, N-((1S,2S)-2-hydroxycyclopentyl)-4-(4-(2-methyloxazol-4-yl)benzyl)-6-(1H-pyrazol-1-yl)picolinamide] | 4.91 | 78 | > 10 | < 5
14 | Cn1cc(-c2ccc(Cc3cc(C(=O)NC4CC5(COC5)C4)nc(-c4ccn(C)n4)c3)cn2)cn1 [Compound 5, 6-(1-methyl-1H-pyrazol-3-yl)-4-((6-(1-methyl-1H-pyrazol-4-yl)pyridin-3-yl)methyl)-N-(2-oxaspiro[3.3]heptan-6-yl)picolinamide] | – | 52 | > 10 | < 5
15 | Cc1c(Cc2ccc(-n3cccn3)cc2)cc(C(=O)NC[C@H]2CCCO2)nc1-c1ccn(C)n1 [Compound 63, (R)-4-(4-(1H-pyrazol-1-yl)benzyl)-5-methyl-6-(1-methyl-1H-pyrazol-3-yl)-N-((tetrahydrofuran-2-yl)methyl)picolinamide] | – | 57 | > 10 | < 5
16 | Cc1c(Cc2ccc(-c3ccn(C)n3)nc2)cc(C(=O)NC2CCOCC2)nc1-n1cccn1 [Compound 49, 5-methyl-4-((6-(1-methyl-1H-pyrazol-3-yl)pyridin-3-yl)methyl)-6-(1H-pyrazol-1-yl)-N-(tetrahydro-2H-pyran-4-yl)picolinamide] | – | 63 | > 10 | < 5
17 | Cn1cc(-c2ccc(Cc3cc(C(=O)NC4CCOCC4(C)C)nc(-c4ccn(C)n4)c3)cn2)cn1 (centres unmarked) [Compound 8, N-(3,3-dimethyltetrahydro-2H-pyran-4-yl)-6-(1-methyl-1H-pyrazol-3-yl)-4-((6-(1-methyl-1H-pyrazol-4-yl)pyridin-3-yl)methyl)picolinamide] | 8.01 | 75 | > 10 | < 5
